Measured values reported in ChEMBL document CHEMBL5380813, “Discovery of 2H-Indazole-3-carboxamide Derivatives as Novel Potent Prostanoid EP4 Receptor Antagonists for Colorectal Cancer Immunotherapy” (J Med Chem, 2023).

Tests used:
[1] = target: T1, Prostaglandin E2 receptor EP4 subtype (Homo sapiens, UniProt P35408); test: Antagonist activity at human EP4 receptor transfected in HEK293 cells assessed as inhibition of PGE2-induced cAMP production measured for 30 mins by Glosensor cAMP assay
[2] = Metabolic stability in human liver assessed as intrinsic clearance
[3] = target: T1, Prostaglandin E2 receptor EP4 subtype; test: Antagonist activity at EP4 receptor (unknown origin) by GloSensor cAMP assay
[4] = target: Prostaglandin E2 receptor EP4 subtype (Rattus norvegicus, UniProt P43114); test: Antagonist activity at rat EP4 receptor transfected in HEK293 cells assessed as inhibition of PGE2-induced cAMP production measured for 30 mins by Glosensor cAMP assay; format: functional, cell-based
Sequence of Prostaglandin E2 receptor EP4 subtype (Rattus norvegicus, UniProt P43114) (P43114 whole entry): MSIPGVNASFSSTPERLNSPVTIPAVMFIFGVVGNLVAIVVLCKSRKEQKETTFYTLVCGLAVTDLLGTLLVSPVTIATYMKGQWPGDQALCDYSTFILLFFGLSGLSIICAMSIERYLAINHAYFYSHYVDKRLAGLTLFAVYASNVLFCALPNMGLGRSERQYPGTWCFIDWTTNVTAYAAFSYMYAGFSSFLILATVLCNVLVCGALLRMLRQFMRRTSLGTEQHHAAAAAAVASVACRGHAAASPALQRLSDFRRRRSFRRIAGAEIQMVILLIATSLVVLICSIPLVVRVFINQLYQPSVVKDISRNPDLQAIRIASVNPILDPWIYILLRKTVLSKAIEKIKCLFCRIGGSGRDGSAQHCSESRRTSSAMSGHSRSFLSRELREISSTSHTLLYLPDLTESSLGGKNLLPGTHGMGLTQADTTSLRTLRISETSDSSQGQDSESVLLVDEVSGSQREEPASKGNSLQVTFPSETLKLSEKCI

Cytochrome P450 2C19 = Cytochrome P450 2C19 (Homo sapiens, UniProt P33261); test: Inhibition of CYP2C19 (unknown origin); format: ADME
Sequence of Cytochrome P450 2C19 (P33261 whole entry): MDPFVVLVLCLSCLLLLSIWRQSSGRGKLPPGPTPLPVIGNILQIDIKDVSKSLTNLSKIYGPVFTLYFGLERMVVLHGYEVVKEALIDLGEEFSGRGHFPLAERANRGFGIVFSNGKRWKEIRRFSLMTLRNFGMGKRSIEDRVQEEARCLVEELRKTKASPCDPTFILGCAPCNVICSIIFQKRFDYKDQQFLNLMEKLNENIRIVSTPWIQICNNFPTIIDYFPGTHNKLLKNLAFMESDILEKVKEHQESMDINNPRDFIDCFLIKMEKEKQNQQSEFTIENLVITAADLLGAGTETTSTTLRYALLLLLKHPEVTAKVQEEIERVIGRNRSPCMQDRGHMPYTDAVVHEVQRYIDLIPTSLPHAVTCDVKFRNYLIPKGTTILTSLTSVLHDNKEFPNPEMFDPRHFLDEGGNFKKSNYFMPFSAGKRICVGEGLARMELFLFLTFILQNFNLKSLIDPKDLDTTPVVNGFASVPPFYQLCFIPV

Cytochrome P450 1A2 = target: T2, Cytochrome P450 1A2 (Homo sapiens, UniProt P05177); test: Inhibition of CYP1A2 (unknown origin); format: ADME
T2 sequence (P05177 whole entry): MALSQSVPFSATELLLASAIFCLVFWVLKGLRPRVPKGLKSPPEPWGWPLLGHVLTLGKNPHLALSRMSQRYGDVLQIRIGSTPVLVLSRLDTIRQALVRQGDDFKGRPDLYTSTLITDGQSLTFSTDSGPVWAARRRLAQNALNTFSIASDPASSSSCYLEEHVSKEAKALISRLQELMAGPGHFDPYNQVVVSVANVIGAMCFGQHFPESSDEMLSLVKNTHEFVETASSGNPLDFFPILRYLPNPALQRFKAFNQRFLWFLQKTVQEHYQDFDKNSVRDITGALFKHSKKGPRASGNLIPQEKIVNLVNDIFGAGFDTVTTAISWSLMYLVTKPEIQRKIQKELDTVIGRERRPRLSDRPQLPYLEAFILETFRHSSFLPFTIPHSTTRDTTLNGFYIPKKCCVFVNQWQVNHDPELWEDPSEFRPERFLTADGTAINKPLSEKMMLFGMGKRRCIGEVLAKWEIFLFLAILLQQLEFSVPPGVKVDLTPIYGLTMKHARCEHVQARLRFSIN

[5] = target: T3, Prostaglandin E2 receptor EP3 subtype (Homo sapiens, UniProt P43115); test: Antagonist activity at human EP3 receptor expressed in CHO cells co-expressing Galpha16 assessed as inhibition of PGE2 induced intracellular calcium flux preincubated for 20 mins followed by PGE2 stimulation and measured immediately by microplate reader analysis; format: functional, cell-based
T3 sequence (P43115 whole entry): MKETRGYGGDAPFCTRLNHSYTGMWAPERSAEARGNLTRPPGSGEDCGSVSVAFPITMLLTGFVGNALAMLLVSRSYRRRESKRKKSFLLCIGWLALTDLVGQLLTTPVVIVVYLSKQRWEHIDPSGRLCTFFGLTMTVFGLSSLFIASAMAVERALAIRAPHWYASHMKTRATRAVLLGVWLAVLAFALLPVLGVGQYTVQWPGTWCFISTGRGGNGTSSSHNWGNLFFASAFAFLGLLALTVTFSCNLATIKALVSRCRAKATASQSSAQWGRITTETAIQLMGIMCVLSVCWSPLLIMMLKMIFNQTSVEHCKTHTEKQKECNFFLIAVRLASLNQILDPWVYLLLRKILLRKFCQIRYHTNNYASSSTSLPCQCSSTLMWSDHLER

CYP3A = CYP3A (Homo sapiens, UniProt P08684+P20815+P24462+Q9HB55); test: Inhibition of CYP3A (unknown origin) assessed as reduction in midazolam […] activity; format: ADME, protein assay; settings: probe midazolam
[6] = target: Prostaglandin E2 receptor EP4 subtype (Mus musculus, UniProt P32240); test: Antagonist activity at mouse EP4 receptor transfected in HEK293 cells assessed as inhibition of PGE2-induced cAMP production measured for 30 mins by Glosensor cAMP assay; format: functional, cell-based
Sequence of Prostaglandin E2 receptor EP4 subtype (Mus musculus, UniProt P32240) (P32240 whole entry): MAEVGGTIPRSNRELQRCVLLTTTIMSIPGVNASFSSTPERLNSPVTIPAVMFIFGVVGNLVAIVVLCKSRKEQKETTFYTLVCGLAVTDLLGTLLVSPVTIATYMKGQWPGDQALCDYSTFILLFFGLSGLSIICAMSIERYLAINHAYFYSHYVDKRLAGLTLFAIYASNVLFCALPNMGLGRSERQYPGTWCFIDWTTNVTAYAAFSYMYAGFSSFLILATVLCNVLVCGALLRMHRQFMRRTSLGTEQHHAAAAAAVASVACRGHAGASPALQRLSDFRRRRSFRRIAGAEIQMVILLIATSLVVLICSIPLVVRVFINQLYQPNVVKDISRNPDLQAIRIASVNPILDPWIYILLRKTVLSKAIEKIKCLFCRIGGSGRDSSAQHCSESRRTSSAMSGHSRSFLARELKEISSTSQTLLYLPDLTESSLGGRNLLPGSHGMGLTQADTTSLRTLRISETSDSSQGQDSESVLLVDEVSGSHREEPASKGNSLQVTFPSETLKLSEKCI

Cytochrome P450 2D6 = Cytochrome P450 2D6 (Homo sapiens, UniProt P10635); test: Inhibition of CYP2D6 (unknown origin); format: ADME
Sequence of Cytochrome P450 2D6 (P10635 whole entry): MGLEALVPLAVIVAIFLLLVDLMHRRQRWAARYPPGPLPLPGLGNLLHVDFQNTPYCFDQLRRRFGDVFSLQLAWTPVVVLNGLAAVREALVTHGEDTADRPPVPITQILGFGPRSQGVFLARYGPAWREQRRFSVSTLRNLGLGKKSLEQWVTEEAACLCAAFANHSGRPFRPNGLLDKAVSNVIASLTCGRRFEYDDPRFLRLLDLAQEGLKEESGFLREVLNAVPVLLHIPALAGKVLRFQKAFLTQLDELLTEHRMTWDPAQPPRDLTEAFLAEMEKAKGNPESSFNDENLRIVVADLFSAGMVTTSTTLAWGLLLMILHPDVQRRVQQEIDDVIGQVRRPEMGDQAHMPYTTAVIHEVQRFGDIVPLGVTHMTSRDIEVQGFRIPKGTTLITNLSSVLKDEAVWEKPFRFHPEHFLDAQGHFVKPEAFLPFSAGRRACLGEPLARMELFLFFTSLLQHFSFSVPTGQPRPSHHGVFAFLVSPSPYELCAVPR

Cytochrome P450 2C9 = Cytochrome P450 2C9 (Homo sapiens, UniProt P11712); test: Inhibition of CYP2C9 (unknown origin); format: ADME
Sequence of Cytochrome P450 2C9 (P11712 whole entry): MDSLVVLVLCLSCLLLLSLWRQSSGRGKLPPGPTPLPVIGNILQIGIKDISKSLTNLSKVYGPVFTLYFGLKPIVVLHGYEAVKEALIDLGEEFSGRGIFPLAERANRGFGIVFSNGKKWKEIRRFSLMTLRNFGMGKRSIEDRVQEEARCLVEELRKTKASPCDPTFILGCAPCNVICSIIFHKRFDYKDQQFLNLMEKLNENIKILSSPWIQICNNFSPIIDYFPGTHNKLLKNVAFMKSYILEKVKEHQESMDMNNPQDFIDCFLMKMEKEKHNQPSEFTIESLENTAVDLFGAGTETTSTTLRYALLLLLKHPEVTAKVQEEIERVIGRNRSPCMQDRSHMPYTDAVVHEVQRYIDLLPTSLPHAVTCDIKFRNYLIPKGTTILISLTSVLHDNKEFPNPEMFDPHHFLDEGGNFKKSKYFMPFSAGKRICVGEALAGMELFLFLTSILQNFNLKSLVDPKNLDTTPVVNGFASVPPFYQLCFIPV

[7] = target: Prostaglandin E2 receptor EP2 subtype (Homo sapiens, UniProt P43116); test: Antagonist activity at human EP2 receptor expressed in CHO cells co-expressing Galpha16 assessed as inhibition of PGE2 induced intracellular calcium flux preincubated for 20 mins followed by PGE2 stimulation and measured immediately by microplate reader analysis; format: functional, cell-based
Sequence of Prostaglandin E2 receptor EP2 subtype (P43116 whole entry): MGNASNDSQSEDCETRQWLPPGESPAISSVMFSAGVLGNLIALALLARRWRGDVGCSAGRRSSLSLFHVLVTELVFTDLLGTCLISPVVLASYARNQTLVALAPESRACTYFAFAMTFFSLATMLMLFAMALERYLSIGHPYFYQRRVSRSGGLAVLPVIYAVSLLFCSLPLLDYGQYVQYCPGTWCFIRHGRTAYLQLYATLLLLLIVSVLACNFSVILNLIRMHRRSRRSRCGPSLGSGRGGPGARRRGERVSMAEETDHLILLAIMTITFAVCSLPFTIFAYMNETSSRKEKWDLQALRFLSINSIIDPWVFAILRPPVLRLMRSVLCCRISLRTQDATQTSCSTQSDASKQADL

[8] = human, microsomes
Description: Metabolic stability in human liver microsomes assessed as assessed as intrinsic clearance

CT26 = test: animal or person; settings: Mus musculus, CT26, po, 240 h, read-out: TGI
Description: Antitumor activity against mouse CT26 cells implanted in BALB/c mouse assessed as tumor growth inhibition at 100 mg/kg, po administered daily for 10 days and measured every 2 days relative to control

T1 sequence (P35408 whole entry): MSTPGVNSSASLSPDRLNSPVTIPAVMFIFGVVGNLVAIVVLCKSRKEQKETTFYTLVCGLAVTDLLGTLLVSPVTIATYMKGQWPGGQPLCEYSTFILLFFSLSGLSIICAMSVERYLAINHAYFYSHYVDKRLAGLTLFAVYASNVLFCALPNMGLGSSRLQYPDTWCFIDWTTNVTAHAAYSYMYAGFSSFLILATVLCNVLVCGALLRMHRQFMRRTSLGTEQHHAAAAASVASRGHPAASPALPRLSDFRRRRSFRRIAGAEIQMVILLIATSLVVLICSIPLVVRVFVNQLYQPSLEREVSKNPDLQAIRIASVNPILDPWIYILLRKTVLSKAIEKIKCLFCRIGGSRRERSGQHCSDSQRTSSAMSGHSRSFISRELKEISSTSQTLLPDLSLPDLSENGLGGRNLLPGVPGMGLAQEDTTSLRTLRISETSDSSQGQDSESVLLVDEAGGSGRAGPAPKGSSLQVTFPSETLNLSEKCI

| SMILES | IC50 [1] | further results |
| --- | --- | --- |
| O=C(O)c1ccc(CNC(=O)c2c3ccccc3nn2Cc2cccc(Cl)c2)cc1 | 6.9 nM | – |
| COc1ccc(Cn2nc3ccccc3c2C(=O)N[C@@H](C)c2ccc(C(=O)O)cc2)cc1 | 7.2 nM | – |
| O=C(O)c1cccc(NC(=O)c2c3ccccc3nn2Cc2cccc(F)c2)c1 | 10000 nM | – |
| O=C(O)c1cccc(NC(=O)c2c3ccccc3nn2Cc2ccc(F)cc2)c1 | 10000 nM | – |
| O=C(O)c1ccc(CNC(=O)c2c3ccccc3nn2CCOc2ccc(Cl)cc2)cc1 | 21.8 nM | – |
| O=C(O)c1ccc(C2(NC(=O)c3c4ccccc4nn3Cc3ccc(C(F)(F)F)cc3)CC2)cc1 | 6.9 nM | – |
| O=C(O)c1ccc(CNC(=O)c2nn(Cc3cccc(C(F)(F)F)c3)c3ccccc23)cc1 | 10000 nM | – |
| COc1cccc(Cn2nc3ccccc3c2C(=O)N[C@@H](C)c2ccc(C(=O)O)cc2)c1 | 19 nM | – |
| COc1ccc(Cn2nc3ccccc3c2C(=O)NCc2ccc(C(=O)O)cc2)cc1F | 2.1 nM | – |
| Cc1ccc(Cn2nc3ccccc3c2C(=O)NCc2ccc(C(=O)O)cc2)cc1 | 4.2 nM | – |
| O=C(O)c1ccc(CNC(=O)c2c3ccc(F)cc3nn2Cc2ccc(C(F)(F)F)cc2)cc1 | 5.7 nM | CLint scaled [2]: < 8.6 mL/min/kg |
| O=C(O)c1ccc(CNC(=O)c2nn(Cc3ccccc3)c3ccccc23)cc1 | 10000 nM | – |
| C[C@H](NC(=O)c1c2ccccc2nn1Cc1ccc(OC(F)(F)F)cc1)c1ccc(C(=O)O)cc1 | 4.3 nM | – |
| O=C(O)c1ccc(CNC(=O)c2c3ccccc3nn2CCOc2cccc(C(F)(F)F)c2)cc1 | 69.1 nM | – |
| COc1ccc(Cn2nc(C(=O)NCc3ccc(C(=O)O)cc3)c3ccccc32)cc1 | 10000 nM | – |
| COc1ccc(Cn2nc3ccccc3c2C(=O)NCc2ccc(C(=O)O)cc2)cc1Cl | 6.5 nM | – |
| COc1ccc2c(C(=O)NCc3ccc(C(=O)O)cc3)n(Cc3ccc(C(F)(F)F)cc3)nc2c1 | 59.4 nM | – |

| SMILES | IC50 [1] | further results |
| --- | --- | --- |
| O=C(O)c1ccc(NC(=O)c2c3ccccc3nn2Cc2ccc(F)cc2)cc1 | – | IC50 [3]: 3110 nM |
| O=C(O)c1ccc(CNC(=O)c2nn(Cc3cccc(Cl)c3)c3ccccc23)cc1 | 10000 nM | – |
| COc1ccc(Cn2nc3ccccc3c2C(=O)NCc2ccc(C(=O)O)cc2)cc1 | 4.4 nM | – |
| O=C(O)c1ccc(CNC(=O)c2c3ccccc3nn2Cc2ccc(F)cc2)cc1 | 7.1 nM | – |
| O=C(O)c1ccc(CNC(=O)c2c3ccccc3nn2Cc2ccc(Cl)c(F)c2)cc1 | 1.7 nM | CLint scaled [2]: < 8.6 mL/min/kg |
| O=C(O)c1ccc(CNC(=O)c2nn(Cc3ccc(OC(F)(F)F)cc3)c3ccccc23)cc1 | 10000 nM | – |
| O=C(O)c1ccc(CNC(=O)c2c3ccccc3nn2Cc2ccc(C(F)(F)F)cc2F)cc1 | 2 nM | – |
| COc1c(F)cc(Cn2nc3ccccc3c2C(=O)NCc2ccc(C(=O)O)cc2)cc1F | 7.5 nM | – |
| COc1cccc(Cn2nc3ccccc3c2C(=O)NCc2ccc(C(=O)O)cc2)c1 | 12 nM | – |
| O=C(O)c1ccc(CNC(=O)c2c3ccccc3nn2Cc2ccc(C(F)(F)F)cc2)cc1 | – | IC50 [4]: 36.3 nM; IC50 (Cytochrome P450 2C19): > 50000 nM; IC50 (Cytochrome P450 1A2): > 50000 nM; IC50 [5]: > 10000 nM; IC50 (CYP3A): > 50000 nM; IC50 [6]: 1.6 nM; IC50 (Cytochrome P450 2D6): > 50000 nM; IC50 (Cytochrome P450 2C9): > 50000 nM; IC50 [7]: > 10000 nM |
| O=C(O)c1ccc(CNC(=O)c2c3ccccc3nn2Cc2cccc(F)c2)cc1 | 17 nM | – |
| O=C(O)c1ccc(CNC(=O)c2nn(Cc3ccc(Cl)cc3)c3ccccc23)cc1 | 10000 nM | – |
| COc1cccc(Cn2nc(C(=O)NCc3ccc(C(=O)O)cc3)c3ccccc32)c1 | 10000 nM | – |
| O=C(O)c1ccc(CNC(=O)c2nn(Cc3ccc(C(F)(F)F)cc3)c3ccccc23)cc1 | 10000 nM | – |
| O=C(O)Cc1ccccc1Nc1c(Cl)cccc1Cl [DICLOFENAC] | – | CLH [8]: 0.2079 mL/min/kg; CLint scaled [2]: 187 mL/min/kg |
| C[C@H](NC(=O)c1c(C(F)F)nn(C)c1Oc1cccc(C(F)(F)F)c1)c1ccc(C(=O)O)cc1 [PALUPIPRANT] | – | inhibition in vivo at 100 mg/kg (CT26): 43.3% |
| C[C@]12CC[C@H]3[C@@H](CCC4=CC(=O)CC[C@@]43C)[C@@H]1CC[C@@H]2O [TESTOSTERONE] | – | CLH [8]: 0.1082 mL/min/kg; CLint scaled [2]: 97.4 mL/min/kg |
